Experimental data from patent publication US10682339B2, “Pharmaceutical compositions directly targeting FKBP52 for the treatment of prostate cancer and methods of using same” (THE BOARD OF REGENTS OF THE UNIVERSITY OF TEXAS SYSTEM, priority 2014, dated 2020).

Legend:
[1] = system: LNCaP prostate cancer cells; experiment: ELISA of androgen-dependent PSA secretion from LNCaP cells; type: cell-based; settings: preliminary
Protocol: (§1) FIG. 3. The FKBP52-specific inhibitor GMC1 inhibits AR and GR activity. (A) Representative AR- and GR-mediated luciferase reporter assays in MDA-kb2 cells with a range of GMC1 concentrations. The average IC50 from 4 independent experiments are shown. (B) A representative luciferase reporter assay in 52KO mouse embryonic fibroblast cells in the presence or absence of FKBP52 were performed. Transfected cells were treated with DHT and a range of concentrations of GMC1 and assessed for AR-dependent expression of a luciferase reporter. The average IC50 of 3 independent assays is shown. (C-D) ELISA assays measuring androgen-dependent PSA secretion form LNCaP (C) and 22Rv1 (D) prostate cancer cells treated with the indicated concentrations of GMC1.

[2] = system: FKBP52-regulated AR activity; experiment: AR-dependent luciferase reporter assay in 52KO mouse embryonic fibroblast cells with or without FKBP52; type: cell-based; settings: 52KO MEF cells, DHT treated
Protocol: as §1

[3] = system: GR; experiment: GR-mediated luciferase reporter assay in MDA-kb2 cells; type: cell-based
Protocol: as §1

[4] = system: 22Rv1 prostate cancer cells; experiment: ELISA of PSA secretion from 22Rv1 cells in the presence and absence of hormone; type: cell-based; settings: for inhibition of hormone-independent PSA secretion (ELISA): absence of hormone
Protocol: as §1
(§2) FIG. 4. GMC1 inhibits hormone-dependent and +independent PSA secretion and hormone dependent proliferation in 22Rv1 prostate cancer cells. (A) ELISA assay in 22Rv1 cells measuring GMC1 effects on PSA secretion in the presence and absence of hormone. (B) qPCR assay in 22Rv1 cells measuring endogenous PSA gene expression in the presence or absence of hormone. For comparison, GMC1, but not MJC13, inhibits hormone-independent PSA secretion and/or expression. (C) A BrdU incorporation assay was used to assess GMC1 effects on hormone-dependent 22Rv1 cell proliferation.

[5] = system: 22Rv1 prostate cancer cells; experiment: qPCR of endogenous PSA gene expression in 22Rv1 cells; type: cell-based; settings: absence of hormone
Description: as §2

[6] = system: AR; experiment: AR-mediated luciferase reporter assay in MDA-kb2 cells; type: cell-based; settings: among 40 hits from the virtual screen
Protocol: as §1

[7] = system: 22Rv1 prostate cancer cells; experiment: BrdU incorporation assay of hormone-dependent 22Rv1 cell proliferation; type: cell-based; settings: 22Rv1 cells
Description: as §2

[8] = biological target: T1, β-catenin interaction with AR (Homo sapiens, UniProt P10275); experiment: β-catenin interaction with AR; settings: targeting to the AR BF3 surface
T1 sequence (P10275 1-920): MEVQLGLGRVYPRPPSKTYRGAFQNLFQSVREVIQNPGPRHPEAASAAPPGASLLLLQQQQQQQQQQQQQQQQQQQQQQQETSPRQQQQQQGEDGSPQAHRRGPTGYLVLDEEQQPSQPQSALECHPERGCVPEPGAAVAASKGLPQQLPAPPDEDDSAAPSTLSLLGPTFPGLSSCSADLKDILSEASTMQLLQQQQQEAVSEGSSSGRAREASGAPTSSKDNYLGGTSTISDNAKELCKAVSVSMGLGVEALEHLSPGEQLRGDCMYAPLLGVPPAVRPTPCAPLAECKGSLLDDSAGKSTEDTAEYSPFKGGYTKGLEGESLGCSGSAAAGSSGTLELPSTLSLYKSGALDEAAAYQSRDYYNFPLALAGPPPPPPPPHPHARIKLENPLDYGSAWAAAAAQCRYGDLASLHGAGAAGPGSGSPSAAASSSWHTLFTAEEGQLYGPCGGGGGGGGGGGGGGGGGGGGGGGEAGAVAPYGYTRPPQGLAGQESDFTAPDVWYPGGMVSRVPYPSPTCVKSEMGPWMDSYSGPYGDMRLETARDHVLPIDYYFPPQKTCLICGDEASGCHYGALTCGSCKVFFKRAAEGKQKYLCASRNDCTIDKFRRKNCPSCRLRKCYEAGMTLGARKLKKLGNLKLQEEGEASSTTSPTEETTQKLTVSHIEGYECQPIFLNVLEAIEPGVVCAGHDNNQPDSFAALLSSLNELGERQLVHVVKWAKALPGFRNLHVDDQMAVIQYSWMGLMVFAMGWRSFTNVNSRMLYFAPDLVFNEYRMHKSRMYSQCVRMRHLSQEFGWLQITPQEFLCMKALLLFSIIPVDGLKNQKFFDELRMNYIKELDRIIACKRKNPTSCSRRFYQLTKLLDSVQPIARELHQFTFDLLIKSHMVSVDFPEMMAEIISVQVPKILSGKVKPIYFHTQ
Description: MJC13 is described as an inhibitor of FKBP52-regulated AR activity (De Leon et. al. 2011. PNAS. 108 (29): 11878-83) by targeting the AR BF3 surface. A novel mechanism is disclosed by which FKBP52 and β-catenin interact to co-regulate AR activity in prostate cancer cells. […] Specific small molecules docked within the PPIase pocket affect proline-rich loop conformation and interactions. […] Thus, small molecules predicted to target the FKBP52 PPIase pocket have been identified in the disclosed embodiments.

[9] = system: prostate cancer xenograft; settings: prostate cancer xenograft model; preliminary preclinical studies; cited from earlier work
[10] = system: human prostate cancer cell lines; settings: cited from earlier work
[11] = variety of human prostate cancer cell lines

## COc1ccc(/C=N/NC(=O)CSc2nc3ccccc3[nH]2)cc1 [GMC1, 2-(1H-benzimidizol-2-ylsulfanyl)-N—[(Z)-(4methoxyphenyl)methylideneamino]acetamide]
[1]
  inhibition of AR-dependent PSA expression (ELISA): inhibits
[2]
  inhibition of FKBP52-regulated AR activity (effective concentration range): high nanomolar range
[3]
  inhibition of FKBP52-regulated GR activity (effective concentration range): high nanomolar range
[4]
  inhibition of hormone-independent PSA secretion (ELISA): inhibits
[4]; with hormone
  inhibition of AR-dependent (hormone-dependent) PSA expression/secretion (ELISA): inhibits
[5]
  inhibition of hormone-independent PSA gene expression (qPCR): inhibits
[6]
  inhibition of AR-mediated reporter gene expression: most potent inhibition
[7]
  inhibition of hormone dependent proliferation (BrdU incorporation): inhibits

## O=C(Nc1cccc(Cl)c1Cl)C1CCCCC1 [MJC13]
[8]
  effect on β-catenin interaction with AR: abrogates
[9]
  effects on tumor growth: impressive effects on tumor growth
[4]
  inhibition of hormone-independent PSA secretion (ELISA): not
[5]
  inhibition of hormone-independent PSA gene expression (qPCR): not
[10]
  effective drug concentrations (AR BF3 surface targeting): low micromolar range
[10]; [11]
  block of AR signaling: effectively block
  block of AR-dependent cancer cell proliferation: effectively block
